Series [1] concerns the target Sodium-dependent dopamine transporter (Homo sapiens, UniProt Q01959). The series can be described thus: Binding affinity to human DAT expressed in HEK293 cells. Type of series: cell-based.
For series [2], the target named is Sodium-dependent serotonin transporter (Homo sapiens, UniProt P31645). The series can be described thus: Binding affinity to human SERT expressed in HEK293 cells. Type of series: cell-based.
The nature of series [3]: Partition coefficient, log P at pH 7.4. The note with it: octanol/water. Type of series: physicochemical.
Series [4] concerns the target Sodium-dependent noradrenaline transporter (Homo sapiens, UniProt P23975). The series can be described thus: Binding affinity to human NET expressed in HEK293 cells. Type of series: cell-based.
The nature of series [5]: Ratio of drug level in thalamus to cerebellum in cynomolgus monkey after 235 mins. Type of series: ADME, tissue-based, Macaca fascicularis. Conditions: in vivo.
Series [6] is described as follows: Ratio of drug level in medulla to cerebellum in cynomolgus monkey after 235 mins. Type of series: ADME, tissue-based, Macaca fascicularis. Conditions: in vivo.
A short description of series [7]: Ratio of drug level in caudate to cerebellum in cynomolgus monkey after 235 mins. Type of series: ADME, tissue-based, Macaca fascicularis. The note with it: in vivo.
Series [8] can be described thus: Ratio of drug level in midbrain to cerebellum in cynomolgus monkey after 235 mins. Type of series: ADME, tissue-based, Macaca fascicularis. Conditions: in vivo.
Series [9] in a line: Ratio of drug level in putamen to cerebellum in cynomolgus monkey after 235 mins. Type of series: ADME, tissue-based, Macaca fascicularis. The note with it: in vivo.
Series [10] is described as follows: Ratio of drug level in occipital cortex to cerebellum in cynomolgus monkey after 235 mins. Type of series: ADME, tissue-based, Macaca fascicularis. The note with it: in vivo.
Series [11] is described as follows: Biodistribution in iv dosed Sprague-Dawley rat pons in presence of reboxetine at 6 mg/kg after 60 mins. Type of series: ADME, organism-based. Details: dose 6 mg/kg, route intravenous. Conditions: read-out: Drug uptake.
A short description of series [12]: Biodistribution in iv dosed Sprague-Dawley rat hypothalamus in presence of citalopram at 6 mg/kg after 60 mins. Type of series: ADME, organism-based. Details: dose 6 mg/kg, route intravenous. The note with it: read-out: Drug uptake.
A short description of series [13]: Biodistribution in iv dosed Sprague-Dawley rat hippocampus in presence of reboxetine at 6 mg/kg after 60 mins. Details: dose 6 mg/kg, route intravenous. The note with it: read-out: Drug uptake. Type of series: ADME, organism-based.
Series [14] can be described thus: Biodistribution in iv dosed Sprague-Dawley rat cerebellum in presence of reboxetine at 6 mg/kg after 60 mins. Details: dose 6 mg/kg, route intravenous. The note with it: read-out: Drug uptake. Type of series: ADME, organism-based.
Series [15] can be described thus: Biodistribution in iv dosed Sprague-Dawley rat pons in presence of citalopram at 6 mg/kg after 60 mins. Type of series: ADME, organism-based. Also on record: dose 6 mg/kg, route intravenous. The note with it: read-out: Drug uptake.
The nature of series [16]: Biodistribution in iv dosed Sprague-Dawley rat hypothalamus after 60 mins. The note with it: read-out: Drug uptake. Type of series: ADME, organism-based.
Series [17] in a line: Biodistribution in iv dosed Sprague-Dawley rat pre frontal cortex in presence of citalopram at 6 mg/kg after 60 mins. Type of series: ADME, organism-based. Details: dose 6 mg/kg, route intravenous. The note with it: prefrontal cortex, read-out: Drug uptake.
Series [18] can be described thus: Biodistribution in iv dosed Sprague-Dawley rat occipital cortex after 60 mins. Type of series: ADME, organism-based. The note with it: read-out: Drug uptake.
The nature of series [19]: Biodistribution in iv dosed Sprague-Dawley rat occipital cortex in presence of RTI-113 at 6 mg/kg after 60 mins. Type of series: ADME, organism-based. Details: dose 6 mg/kg, route intravenous. Conditions: read-out: Drug uptake.
Series [20] in a line: Biodistribution in iv dosed Sprague-Dawley rat striatum in presence of citalopram at 6 mg/kg after 60 mins. Type of series: ADME, organism-based. Conditions: read-out: Drug uptake. Also on record: dose 6 mg/kg, route intravenous.
The next series has as its system Cerebellum. The series is described as follows: Biodistribution in iv dosed Sprague-Dawley rat cerebellum after 5 mins. Type of series: ADME, organism-based. The note with it: in vivo.
Series [21] in a line: Biodistribution in iv dosed Sprague-Dawley rat pre frontal cortex after 60 mins. Type of series: ADME, organism-based. The note with it: prefrontal cortex, read-out: Drug uptake.
A short description of series [22]: Biodistribution in iv dosed Sprague-Dawley rat pons in presence of RTI-113 at 6 mg/kg after 60 mins. Type of series: ADME, organism-based. The note with it: read-out: Drug uptake. Also on record: dose 6 mg/kg, route intravenous.
Series [23] can be described thus: Biodistribution in iv dosed Sprague-Dawley rat hippocampus after 60 mins. Type of series: ADME, organism-based. Conditions: read-out: Drug uptake.
Series [24] is described as follows: Biodistribution in iv dosed Sprague-Dawley rat cerebellum after 60 mins. The note with it: read-out: Drug uptake. Type of series: ADME, organism-based.
Series [25] in a line: Biodistribution in iv dosed Sprague-Dawley rat striatum in after 60 mins. The note with it: read-out: Drug uptake. Type of series: ADME, organism-based.
Series [26] is described as follows: Biodistribution in iv dosed Sprague-Dawley rat pre frontal cortex in presence of RTI-113 at 6 mg/kg after 60 mins. Type of series: ADME, organism-based. Also on record: dose 6 mg/kg, route intravenous. Conditions: prefrontal cortex, read-out: Drug uptake.
Series [27] can be described thus: Biodistribution in iv dosed Sprague-Dawley rat hypothalamus in presence of RTI-113 at 6 mg/kg after 60 mins. Type of series: ADME, organism-based. Details: dose 6 mg/kg, route intravenous. Conditions: read-out: Drug uptake.
A short description of series [28]: Biodistribution in iv dosed Sprague-Dawley rat occipital cortex in presence of citalopram at 6 mg/kg after 60 mins. Type of series: ADME, organism-based. Also on record: dose 6 mg/kg, route intravenous. Conditions: read-out: Drug uptake.
Series [29] in a line: Biodistribution in iv dosed Sprague-Dawley rat hippocampus in presence of citalopram at 6 mg/kg after 60 mins. The note with it: read-out: Drug uptake. Type of series: ADME, organism-based. Also on record: dose 6 mg/kg, route intravenous.
A short description of series [30]: Biodistribution in iv dosed Sprague-Dawley rat hippocampus in presence of RTI-113 at 6 mg/kg after 60 mins. Type of series: ADME, organism-based. Details: dose 6 mg/kg, route intravenous. The note with it: read-out: Drug uptake.
The nature of series [31]: Biodistribution in iv dosed Sprague-Dawley rat occipital cortex in presence of reboxetine at 6 mg/kg after 60 mins. Type of series: ADME, organism-based. Details: dose 6 mg/kg, route intravenous. The note with it: read-out: Drug uptake.
Series [32] can be described thus: Biodistribution in iv dosed Sprague-Dawley rat cerebellum in presence of RTI-113 at 6 mg/kg after 60 mins. Type of series: ADME, organism-based. Details: dose 6 mg/kg, route intravenous. The note with it: read-out: Drug uptake.
Series [33] in a line: Biodistribution in iv dosed Sprague-Dawley rat hypothalamus in presence of reboxetine at 6mg/kg after 60 mins. The note with it: read-out: Drug uptake. Type of series: ADME, organism-based.
A short description of series [34]: Biodistribution in iv dosed Sprague-Dawley rat cerebellum in presence of citalopram at 6 mg/kg after 60 mins. Type of series: ADME, organism-based. Also on record: dose 6 mg/kg, route intravenous. Conditions: read-out: Drug uptake.
The nature of series [35]: Biodistribution in iv dosed Sprague-Dawley rat pons after 60 mins. Type of series: ADME, organism-based. Conditions: read-out: Drug uptake.
A short description of series [36]: Biodistribution in iv dosed Sprague-Dawley rat pre frontal cortex in presence of reboxetine at 6 mg/kg after 60 mins. Type of series: ADME, organism-based. Details: dose 6 mg/kg, route intravenous. Conditions: prefrontal cortex, read-out: Drug uptake.
A short description of series [37]: Biodistribution in iv dosed Sprague-Dawley rat striatum in presence of RTI-113 at 6 mg/kg after 60 mins. Type of series: ADME, organism-based. Details: dose 6 mg/kg, route intravenous. Conditions: read-out: Drug uptake.
Series [38] in a line: Biodistribution in iv dosed Sprague-Dawley rat striatum in presence of reboxetine at 6 mg/kg after 60 mins. Conditions: read-out: Drug uptake. Type of series: ADME, organism-based. Also on record: dose 6 mg/kg, route intravenous.

SMILES strings stand for the structures.

Sodium-dependent serotonin transporter, sequence (P31645 whole entry): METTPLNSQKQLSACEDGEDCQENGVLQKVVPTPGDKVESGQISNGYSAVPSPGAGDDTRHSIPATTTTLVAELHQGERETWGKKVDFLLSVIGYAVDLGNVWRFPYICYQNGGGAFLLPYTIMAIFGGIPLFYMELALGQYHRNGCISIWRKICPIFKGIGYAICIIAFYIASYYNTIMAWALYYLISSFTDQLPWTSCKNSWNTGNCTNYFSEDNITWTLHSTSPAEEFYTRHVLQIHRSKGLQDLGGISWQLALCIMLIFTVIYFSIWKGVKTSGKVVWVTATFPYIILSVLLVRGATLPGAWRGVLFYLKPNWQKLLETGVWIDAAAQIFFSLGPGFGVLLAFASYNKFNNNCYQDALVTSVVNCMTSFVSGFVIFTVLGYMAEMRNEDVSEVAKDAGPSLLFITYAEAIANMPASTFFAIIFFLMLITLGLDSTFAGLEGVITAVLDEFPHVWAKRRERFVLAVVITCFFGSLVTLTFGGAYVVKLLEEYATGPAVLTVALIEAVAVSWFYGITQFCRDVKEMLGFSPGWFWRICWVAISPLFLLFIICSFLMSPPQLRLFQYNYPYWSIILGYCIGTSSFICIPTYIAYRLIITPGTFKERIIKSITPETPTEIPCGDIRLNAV
Sodium-dependent dopamine transporter, sequence (Q01959 whole entry): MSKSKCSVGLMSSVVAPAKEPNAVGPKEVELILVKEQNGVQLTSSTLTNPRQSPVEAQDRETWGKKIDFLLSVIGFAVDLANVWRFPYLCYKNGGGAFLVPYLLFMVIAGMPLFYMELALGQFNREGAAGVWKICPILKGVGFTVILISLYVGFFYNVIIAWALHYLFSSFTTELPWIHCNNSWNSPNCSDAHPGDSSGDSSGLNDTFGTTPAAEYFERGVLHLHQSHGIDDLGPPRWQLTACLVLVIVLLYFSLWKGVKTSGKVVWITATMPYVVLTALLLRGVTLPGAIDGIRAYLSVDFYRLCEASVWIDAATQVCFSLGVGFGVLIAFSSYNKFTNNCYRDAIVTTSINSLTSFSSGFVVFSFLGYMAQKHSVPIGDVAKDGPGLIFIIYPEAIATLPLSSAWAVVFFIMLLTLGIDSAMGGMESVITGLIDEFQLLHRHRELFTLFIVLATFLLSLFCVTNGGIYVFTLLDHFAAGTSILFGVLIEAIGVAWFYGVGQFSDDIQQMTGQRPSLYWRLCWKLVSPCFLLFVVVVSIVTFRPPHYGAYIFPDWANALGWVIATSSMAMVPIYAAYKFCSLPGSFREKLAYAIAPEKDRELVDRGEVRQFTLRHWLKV
Sodium-dependent noradrenaline transporter, sequence (P23975 whole entry): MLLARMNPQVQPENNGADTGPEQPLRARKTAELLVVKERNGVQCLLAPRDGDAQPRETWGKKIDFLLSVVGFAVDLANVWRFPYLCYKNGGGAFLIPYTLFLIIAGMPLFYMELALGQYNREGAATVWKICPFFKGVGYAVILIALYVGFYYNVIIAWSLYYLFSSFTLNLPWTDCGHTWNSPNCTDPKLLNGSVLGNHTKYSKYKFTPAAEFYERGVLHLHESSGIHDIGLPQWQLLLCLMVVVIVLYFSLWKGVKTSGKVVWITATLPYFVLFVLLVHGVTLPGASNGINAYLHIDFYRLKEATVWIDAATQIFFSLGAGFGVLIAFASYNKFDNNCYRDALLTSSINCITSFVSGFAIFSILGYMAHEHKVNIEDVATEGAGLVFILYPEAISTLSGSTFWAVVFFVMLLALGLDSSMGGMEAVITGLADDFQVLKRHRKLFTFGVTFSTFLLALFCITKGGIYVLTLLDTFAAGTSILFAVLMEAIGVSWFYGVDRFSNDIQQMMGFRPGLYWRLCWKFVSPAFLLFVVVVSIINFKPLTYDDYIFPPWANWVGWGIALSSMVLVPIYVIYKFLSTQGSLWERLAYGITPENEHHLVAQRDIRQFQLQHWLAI

On to `O=C(OCCF)C1C2CCC(CC1c1ccc(/C=C\I)cc1)N2` (centres undefined), for which the Ki – broadly, the dissociation constant of the complex between target and ligand, obtained from inhibition or displacement – in series [1] was found to be 13 nM; in series [2], 0.08 nM; in series [4], 28 nM. The logD (commonly the decadic logarithm of the distribution of all forms, ionised or not, between an organic phase and buffer at a given pH) in series [3] stood at 1.8.
As for `O=C(OCC[18F])C1C2CCC(CC1c1ccc(/C=C\I)cc1)N2` (centres undefined), the Ratio in series [5] is on record as 3.3; in [6], 3.3; in [7], 2.6; in series [8], 4.4; in series [9], 3.8; in [10], 1.6.
`O=C(OCCF)C1C2CCC(CC1c1ccc(/C=C\[123I])cc1)N2` (centres undefined): the tissue uptake at 1 h is 0.2 %ID/g in [11]; 0.18 %ID/g in [12]; 0.23 %ID/g in series [13]; 0.13 %ID/g in [14]; 0.14 %ID/g in series [15]; 0.27 %ID/g in [16]. Moreover, the tissue uptake at 1 h was 0.17 %ID/g in series [17]; 0.24 %ID/g in series [18]; 0.24 %ID/g in series [19]; 0.15 %ID/g in [20]; 0.26 %ID/g in [21]; 0.22 %ID/g in series [22]. The tissue uptake at 1 h in series [23] came out at 0.24 %ID/g; in series [24], 0.12 %ID/g; in series [25] it was 0.25 %ID/g; in series [26], 0.28 %ID/g; in series [27], 0.32 %ID/g; in series [28] it was 0.16 %ID/g. The tissue uptake at 1 h was 0.16 %ID/g in [29]; 0.25 %ID/g in series [30]; 0.23 %ID/g in [31]; 0.12 %ID/g in [32]; 0.26 %ID/g in [33]; 0.11 %ID/g in series [34]. The tissue uptake at 1 h was 0.22 %ID/g in series [35], 0.28 %ID/g in [36], 0.26 %ID/g in series [37] and 0.26 %ID/g in [38]. The Drug uptake in the series on Cerebellum came out at 0.24 % ID/g.

Source of the values: ChEMBL document CHEMBL1148775, “Synthesis and in vivo evaluation of fluorine-18 and iodine-123 labeled 2beta-carbo(2-fluoroethoxy)-3beta-(4'-((Z)-2-iodoethenyl)phenyl)nortropane as a candidate serotonin transporter imaging agent” (J Med Chem, 2007).
